Laboratory results published in PubChem BioAssay (NCI).
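48-hour exposure; five concentrations; linearly interpolated endpoints. TGI marks complete inhibition of growth.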

Legend:
Experiment in all cases: NCI anticancer screen, dose series, 48 h
786-0 renal = system: 786-0 renal
A498 renal = system: A498 renal
A549 NSCLC = system: A549 NSCLC
ACHN renal = system: ACHN renal
CCRF-CEM leukemia = system: CCRF-CEM leukemia
COLO 205 colon = system: COLO 205 colon
DLD-1 colon = system: DLD-1 colon
DMS 114 small cell lung = system: DMS 114 small cell lung
DMS 273 small cell lung = system: DMS 273 small cell lung
EKVX NSCLC = system: EKVX NSCLC
HCC-2998 colon = system: HCC-2998 colon
HCT-15 colon = system: HCT-15 colon
HL-60(TB) leukemia = system: HL-60(TB) leukemia
HOP-18 NSCLC = system: HOP-18 NSCLC
HOP-62 NSCLC = system: HOP-62 NSCLC
IGROV1 ovarian = system: IGROV1 ovarian
K-562 leukemia = system: K-562 leukemia
KM20L2 colon = system: KM20L2 colon
LOX IMVI melanoma = system: LOX IMVI melanoma
LXFL 529 NSCLC = system: LXFL 529 NSCLC
M14 melanoma = system: M14 melanoma
M19-MEL melanoma = system: M19-MEL melanoma
MALME-3M melanoma = system: MALME-3M melanoma
MOLT-4 leukemia = system: MOLT-4 leukemia
NCI-H23 lung = system: NCI-H23 lung
NCI-H460 lung = system: NCI-H460 lung
OVCAR-4 ovarian = system: OVCAR-4 ovarian
OVCAR-5 ovarian = system: OVCAR-5 ovarian
OVCAR-8 ovarian = system: OVCAR-8 ovarian
RPMI-8226 leukemia = system: RPMI-8226 leukemia
RXF 393 renal = system: RXF 393 renal
RXF-631 renal = system: RXF-631 renal
SF-268 CNS = system: SF-268 CNS
SF-539 CNS = system: SF-539 CNS
SK-MEL-2 melanoma = system: SK-MEL-2 melanoma
SK-MEL-28 melanoma = system: SK-MEL-28 melanoma
SK-MEL-5 melanoma = system: SK-MEL-5 melanoma
SK-OV-3 ovarian = system: SK-OV-3 ovarian
SN12C renal = system: SN12C renal
SNB-19 CNS = system: SNB-19 CNS
SNB-75 CNS = system: SNB-75 CNS
SNB-78 CNS = system: SNB-78 CNS
SW-620 colon = system: SW-620 colon
TK-10 renal = system: TK-10 renal
U251 CNS = system: U251 CNS
UACC-62 melanoma = system: UACC-62 melanoma
UO-31 renal = system: UO-31 renal
XF 498 CNS = system: XF 498 CNS
CAKI-1 renal = system: CAKI-1 renal
HCT-116 colon = system: HCT-116 colon
HOP-92 NSCLC = system: HOP-92 NSCLC
KM12 colon = system: KM12 colon
NCI-H226 lung = system: NCI-H226 lung
NCI-H522 lung = system: NCI-H522 lung
OVCAR-3 ovarian = system: OVCAR-3 ovarian
SF-295 CNS = system: SF-295 CNS
SR leukemia = system: SR leukemia
UACC-257 melanoma = system: UACC-257 melanoma

Work on `CC1CCC[P+](Cc2ccccc2)(c2ccccc2)CC1` (stereo not drawn) yielded a TGI (786-0 renal) greater than 100 µM, a TGI (A498 renal) greater than 100 µM and a TGI (A549 NSCLC) greater than 100 µM. The TGI (ACHN renal) was greater than 100 µM, the TGI (CCRF-CEM leukemia) was greater than 100 µM and the TGI (COLO 205 colon) was greater than 100 µM. It also gave a TGI (DLD-1 colon) greater than 100 µM, a TGI (DMS 114 small cell lung) of 96.1 µM and a TGI (DMS 273 small cell lung) greater than 100 µM. It also gave a TGI (EKVX NSCLC) greater than 100 µM, a TGI (HCC-2998 colon) greater than 100 µM and a TGI (HCT-15 colon) greater than 100 µM. It also gave a TGI (HL-60(TB) leukemia) of 37.8 µM, a TGI (HOP-18 NSCLC) of 13 µM and a TGI (HOP-62 NSCLC) greater than 100 µM. The TGI (IGROV1 ovarian) was greater than 100 µM, the TGI (K-562 leukemia) was greater than 100 µM and the TGI (KM20L2 colon) was greater than 100 µM. It also gave a TGI (LOX IMVI melanoma) greater than 100 µM, a TGI (LXFL 529 NSCLC) greater than 100 µM and a TGI (M14 melanoma) greater than 100 µM. The TGI (M19-MEL melanoma) was greater than 100 µM, the TGI (MALME-3M melanoma) was 42.6 µM and the TGI (MOLT-4 leukemia) was greater than 100 µM. It also gave a TGI (NCI-H23 lung) greater than 100 µM, a TGI (NCI-H460 lung) greater than 100 µM and a TGI (OVCAR-4 ovarian) of 90.4 µM. For the same compound, the TGI (OVCAR-5 ovarian) was greater than 100 µM, the TGI (OVCAR-8 ovarian) was greater than 100 µM and the TGI (RPMI-8226 leukemia) was 51.4 µM. For the same compound, the TGI (RXF 393 renal) was greater than 100 µM, the TGI (RXF-631 renal) was greater than 100 µM and the TGI (SF-268 CNS) was greater than 100 µM. For the same compound, the TGI (SF-539 CNS) was greater than 100 µM, the TGI (SK-MEL-2 melanoma) was 78.2 µM and the TGI (SK-MEL-28 melanoma) was greater than 100 µM. For the same compound, the TGI (SK-MEL-5 melanoma) was 35.9 µM, the TGI (SK-OV-3 ovarian) was greater than 100 µM and the TGI (SN12C renal) was greater than 100 µM. For the same compound, the TGI (SNB-19 CNS) was greater than 100 µM, the TGI (SNB-75 CNS) was greater than 100 µM and the TGI (SNB-78 CNS) was greater than 100 µM. The TGI (SW-620 colon) was greater than 100 µM, the TGI (TK-10 renal) was greater than 100 µM and the TGI (U251 CNS) was greater than 100 µM. The TGI (UACC-62 melanoma) was greater than 100 µM, the TGI (UO-31 renal) was greater than 100 µM and the TGI (XF 498 CNS) was greater than 100 µM.
`CCC1CCC2CCCC(C)N12` (stereo not drawn) showed a TGI (786-0 renal) greater than 100 µM, a TGI (A549 NSCLC) greater than 100 µM and a TGI (ACHN renal) greater than 100 µM. The TGI (CAKI-1 renal) was greater than 100 µM, the TGI (CCRF-CEM leukemia) was greater than 100 µM and the TGI (COLO 205 colon) was greater than 100 µM. For the same compound, the TGI (DLD-1 colon) was greater than 100 µM, the TGI (DMS 114 small cell lung) was greater than 100 µM and the TGI (DMS 273 small cell lung) was greater than 100 µM. It also gave a TGI (EKVX NSCLC) greater than 100 µM, a TGI (HCC-2998 colon) greater than 100 µM and a TGI (HCT-116 colon) greater than 100 µM. The TGI (HCT-15 colon) was greater than 100 µM, the TGI (HL-60(TB) leukemia) was greater than 100 µM and the TGI (HOP-18 NSCLC) was greater than 100 µM. For the same compound, the TGI (HOP-62 NSCLC) was greater than 100 µM, the TGI (HOP-92 NSCLC) was greater than 100 µM and the TGI (IGROV1 ovarian) was greater than 100 µM. For the same compound, the TGI (K-562 leukemia) was greater than 100 µM, the TGI (KM12 colon) was greater than 100 µM and the TGI (KM20L2 colon) was greater than 100 µM. The TGI (LXFL 529 NSCLC) was greater than 100 µM, the TGI (M14 melanoma) was greater than 100 µM and the TGI (M19-MEL melanoma) was greater than 100 µM. It also gave a TGI (MALME-3M melanoma) greater than 100 µM, a TGI (MOLT-4 leukemia) greater than 100 µM and a TGI (NCI-H226 lung) greater than 100 µM. It also gave a TGI (NCI-H23 lung) greater than 100 µM, a TGI (NCI-H522 lung) greater than 100 µM and a TGI (OVCAR-3 ovarian) greater than 100 µM. The TGI (OVCAR-4 ovarian) was greater than 100 µM, the TGI (OVCAR-8 ovarian) was greater than 100 µM and the TGI (RPMI-8226 leukemia) was greater than 100 µM. It also gave a TGI (RXF-631 renal) greater than 100 µM, a TGI (SF-268 CNS) greater than 100 µM and a TGI (SF-295 CNS) greater than 100 µM. It also gave a TGI (SF-539 CNS) greater than 100 µM, a TGI (SK-MEL-2 melanoma) greater than 100 µM and a TGI (SK-MEL-28 melanoma) greater than 100 µM. It also gave a TGI (SN12C renal) greater than 100 µM, a TGI (SNB-19 CNS) greater than 100 µM and a TGI (SNB-75 CNS) greater than 100 µM. The TGI (SR leukemia) was greater than 100 µM, the TGI (SW-620 colon) was greater than 100 µM and the TGI (TK-10 renal) was greater than 100 µM. The TGI (U251 CNS) was greater than 100 µM, the TGI (UACC-257 melanoma) was greater than 100 µM and the TGI (UACC-62 melanoma) was greater than 100 µM. The TGI (UO-31 renal) was greater than 100 µM and the TGI (XF 498 CNS) was greater than 100 µM.
